One experiment deals with T1, KcsA-Kv1.3 T+F chimera (Streptomyces lividans, UniProt P0A334, A54D/A57S/G53D/G56T/I60S/L59F/L81M/Q58G/R52A/R64D/T61S/Y62I/Y82H).
T1 construct: made in house; host or cells: E. coli C41(DE3) (pET45b)
T1 sequence (P0A334 1-160 R52A/G53D/A54D/G56T/A57S/Q58G/L59F/I60S/T61S/Y62I/R64D/L81M/Y82H): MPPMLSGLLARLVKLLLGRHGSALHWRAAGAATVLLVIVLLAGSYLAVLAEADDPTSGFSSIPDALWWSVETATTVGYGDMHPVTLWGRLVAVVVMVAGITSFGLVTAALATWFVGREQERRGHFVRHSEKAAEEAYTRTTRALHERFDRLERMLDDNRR
The experiment can be described thus: Phage-binding competition assay, KcsA-Kv1.3 T+F. More on the design: species or system human Kv1.3 turret and filter in Streptomyces lividans KcsA. The following applies: for IC50 / rank order of affinities, competition, KcsA-Kv1.3 T+F: HgTx1-phage competition; for IC50: T+F KcsA-Kv1.3, value given in figure, sigmoidal fit to means of three replicates, read-out: IC50 (Fig. 6F); for rank order of affinities, competition, KcsA-Kv1.3 T+F: Fig. 6F; for Rank, T+F chimera (Kv1.3): rank by competition IC50 among Vm24, HgTx1, KTX1. The procedure: Phage stock solutions were diluted to working concentration with phage resuspension buffer supplemented with 2 mM DDM. For protein immobilization, the following amounts were used in a final volume of 50 μl/well: wt KcsA, 0.1 μg; KcsA-Kv1.1 T-only, 0.005 μg; KcsA-Kv1.1 T+F, 0.02 μg; KcsA-Kv1.2 T-only, 0.01 μg; KcsA-Kv1.2 T+F, 0.1 μg; KcsA-Kv1.3 T-only, 0.01 μg; and KcsA-Kv1.3 T+F, 0.1 μg. Protein samples were diluted in 50 μl of storage buffer (20 mM Tris pH8.0, 300 mM KCl, 2 mM DDM) and were added to the designated wells of a Pierce Clear, 96-Well Nickel Coated Plate (15442, Thermo Fisher Scientific), then incubated for 1 h at room temperature on a horizontal shaker at 130 rpm. The plate was blocked for 1 h at room temperature with 180 μl/well TBS-BSA supplemented with 1 mM DDM. Following blocking, the wells were washed 4× with washing buffer (300 μl TBS-Tween, 0.1% v/v) using a Wellwash Versa microplate washer (Thermo Fisher Scientific); then 50 μl phage solution (in TBS-BSA-Tween, 0.1% v/v, 2 mM DDM) at determined phage concentration was added to the wells and incubated for 1 h at room temperature on a horizontal shaker. The plate was washed 4× with washing buffer, then 50 μl anti-M13 IgG HRP (MA5-36125, Invitrogen) diluted to 1:2500 in TBS-Tween (0.1% v/v) was added to the wells and incubated for 1 h at room temperature. The plate was washed again 4× with 300 μl/well washing buffer. Finally, 50 μl/well 1-Step Ultra TMB-ELISA solution (34028, Thermo Fisher Scientific) was added to the wells, and the developing signal was stopped with 50 μl 1M HCl after 5 to 10 min. The light absorbance signal was read at 450 nm with Byonoy absorbance 96 plate reader (Byonoy GmbH).
For protein immobilization, the following amounts were used in a final volume of 50 μl/well: KcsA-Kv1.1 T-only, 0.005 μg; KcsA-Kv1.1 T+F, 0.01 μg; KcsA-Kv1.2 T-only, 0.025 μg; KcsA-Kv1.2 T+F, 0.0125 μg; KcsA-Kv1.3 T-only, 0.01 μg; and KcsA-Kv1.3 T+F, 0.1 μg. Protein samples were diluted in storage buffer. Binding of given concentrations of relevant ligand-displaying phages quantified by light absorbance ([…]) were investigated in a similar manner as in phage ELISA-binding assay, while different concentrations of competing toxin test substances were applied simultaneously. The results were converted to percent inhibitions (percent displacement) of the indicator phage binding, and relative affinities of the tested toxins were assessed by plotting percent displacements against log concentrations and determining half maximal inhibitory concentrations (IC50) by sigmoidal curve fitting using “Sigmoidal dose-response (variable slope) with least squares method” algorithm in GraphPad Prism 8 using the following equation: Y=Bottom+Top−Bottom/1+10^(LogEC50−×)⋅HillSlope

Experiment [1] has as its system human Kv1.2 channel (hKv1.2). Description: Whole-cell patch-clamp, hKv1.2-expressing CHO cells. In kind it is cell-based. The following applies: see Table 1 and Fig. S2; 10 nM peptide in patch-clamp. On the procedure: Chinese Hamster Ovarian cells were grown in Dulbecco’s modified Eagle’s medium–high glucose supplemented with 10% FBS, 2 mM L-glutamine, 100 U/ml penicillin-g, and 100 μg/ml streptomycin (Invitrogen) at 37 °C in a 5% CO2 and 95% air humidified atmosphere. Cells were passaged twice per week following a 5 min incubation in PBS containing 0.2 g/L EDTA. Chinese Hamster Ovarian cells were transiently transfected with plasmids encoding human Kv1.1 (hKCNA1 gene) and human Kv1.2 (hKCNA2 gene) in pCMV6-AC-GFP plasmid (RG211000 and RC222200, OriGene Technologies) using Lipofectamine 2000 (Invitrogen) following the manufacturer’s protocol, then cultured under standard conditions. Transfected cells were washed twice with 2 ml of extracellular solution (ECS, see below) and replated onto 35 mm polystyrene cell culture dishes (Cellstar, Greiner Bio-One) before the patch-clamp experiments. […] In general, currents were recorded 24 to 36 h after transfection.
Conventional whole-cell patch-clamp electrophysiology was used to record ionic currents. Micropipettes were pulled from GC150F-7.5 borosilicate capillaries (Harvard Apparatus) with tip diameters between 0.5 and 1 μm resulting in a tip resistance of 2 to 8 MΩ in the extracellular (bath) solution. […]
Native peptides, phage-expressed peptides, and positive controls used for them were dissolved in ECS supplemented with 0.1 mg/ml bovine serum albumin (BSA; Sigma-Aldrich Hungary). Bath perfusion around the measured cell with different extracellular solutions was achieved using a gravity flow micro perfusion system using a rate of 0.5 ml/min. […]
Voltage protocols: For measurement of Kv1.1 to 1.3 currents, voltage steps to +50 mV were applied from a holding potential of −120 mV and the peak current was measured every 15 s. […] The remaining current fraction at a given molar concentration was calculated as I/I0, where I0 is the peak current in the absence and I is the peak current at equilibrium block or […] after ∼2 min perfusion by the investigated peptide/phage.
In general terms: The patch-clamp technique gives a direct electrical read-out from membranes.

Where a SMILES comes first, the peptide text is derived from it.

By IC50 is commonly meant the concentration that inhibits the measured activity by half. `CC[C@H](C)[C@@H]1NC(=O)CNC(=O)[C@H](Cc2ccccc2)NC(=O)[C@H](CCC(N)=O)NC(=O)[C@H](C)NC(=O)[C@H](CCCCN)NC(=O)[C@@H]2CSSC[C@@H](C(=O)N[C@@H](Cc3ccc(O)cc3)C(=O)N3CCC[C@H]3C(=O)N[C@@H](Cc3c[nH]cn3)C(=O)O)NC(=O)[C@H](CCCCN)NC(=O)[C@@H]3CSSC[C@H](NC(=O)[C@H](CCC(N)=O)NC(=O)[C@H](CCCCN)NC(=O)[C@@H]4CCCN4C(=O)[C@H](CO)NC(=O)[C@H]([C@@H](C)O)NC(=O)[C@@H](NC(=O)[C@H](CCCCN)NC(=O)[C@@H](NC(=O)[C@H](CC(=O)O)NC(=O)[C@@H](NC(=O)[C@@H](NC(=O)[C@@H](N)[C@@H](C)O)C(C)C)[C@@H](C)CC)C(C)C)CSSC[C@H](NC(=O)[C@H](CCCCN)NC(=O)[C@H](C)NC(=O)CNC(=O)[C@H](C)NC(=O)[C@H](CCCNC(=N)N)NC1=O)C(=O)N[C@@H](CCSC)C(=O)N[C@@H](CC(N)=O)C(=O)NCC(=O)N[C@@H](CCCCN)C(=O)N3)C(=O)N[C@@H](CC(C)C)C(=O)N1CCC[C@H]1C(=O)N1CCC[C@H]1C(=O)N2` [HgTx1, Hongotoxin-1] (HELM PEPTIDE1{T.V.I.D.V.K.C.T.S.P.K.Q.C.L.P.P.C.K.A.Q.F.G.I.R.A.G.A.K.C.M.N.G.K.C.K.C.Y.P.H}$PEPTIDE1,PEPTIDE1,7:R3-29:R3|PEPTIDE1,PEPTIDE1,13:R3-34:R3|PEPTIDE1,PEPTIDE1,17:R3-36:R3$$$V2.0; N-terminus and C-terminus assumed): at KcsA-Kv1.3 T+F chimera, the IC50 amounted to 0.107 nM; the “rank order of affinities, competition, KcsA-Kv1.3 T+F” value is listed as “Vm24 > HgTx1 > KTX1”; the “Rank, T+F chimera (Kv1.3)” value came out at 2.

As to `CC[C@H](C)[C@@H]1NC(=O)[C@@H]2CSSC[C@H](NC(=O)[C@H](CO)NC(=O)[C@@H](N)C(C)C)C(=O)N[C@@H]([C@@H](C)O)C(=O)NCC(=O)N[C@@H](CO)C(=O)N[C@@H](CCCCN)C(=O)N[C@@H](CC(=O)O)C(=O)N[C@@H](CSSC[C@@H](C(=O)N[C@@H](CCCCN)C(=O)N[C@H]3CSSC[C@@H](C(N)=O)NC(=O)CNC(=O)[C@H](Cc4ccc(O)cc4)NC3=O)NC(=O)[C@H](CO)NC(=O)[C@H](CCCCN)NC(=O)[C@H](CC(N)=O)NC1=O)C(=O)N[C@@H](Cc1ccc(O)cc1)C(=O)N[C@@H](C)C(=O)N1CCC[C@H]1C(=O)N[C@H]1CSSC[C@H](NC(=O)CNC(=O)[C@H]([C@@H](C)O)NC(=O)[C@H](CCC(N)=O)NC(=O)[C@H](CCCCN)NC(=O)[C@H](CCCNC(=N)N)NC1=O)C(=O)N1CCC[C@H]1C(=O)N[C@@H](CC(N)=O)C(=O)N[C@@H](C)C(=O)N[C@@H](CCCCN)C(=O)N2` [MTX, Maurotoxin] (HELM PEPTIDE1{V.S.C.T.G.S.K.D.C.Y.A.P.C.R.K.Q.T.G.C.P.N.A.K.C.I.N.K.S.C.K.C.Y.G.C.[am]}$PEPTIDE1,PEPTIDE1,3:R3-24:R3|PEPTIDE1,PEPTIDE1,9:R3-29:R3|PEPTIDE1,PEPTIDE1,13:R3-19:R3|PEPTIDE1,PEPTIDE1,31:R3-34:R3$$$V2.0; N-terminus and C-terminus assumed), in experiment [1], the “potency ranking, Kv1.2” value is given as “MTX > ShK >> KTX1”.

Regarding `CC[C@H](C)[C@@H]1NC(=O)[C@@H](NC(=O)[C@H](CO)NC(=O)[C@@H](N)CCCNC(=N)N)CSSC[C@@H](C(=O)O)NC(=O)[C@H]([C@@H](C)O)NC(=O)CNC(=O)[C@@H]2CSSC[C@@H]3NC(=O)[C@H](CCC(N)=O)NC(=O)[C@H](Cc4ccccc4)NC(=O)[C@H](C)NC(=O)[C@H]([C@@H](C)O)NC(=O)[C@H](CSSC[C@H](NC(=O)[C@H](Cc4ccccc4)NC(=O)[C@H](CO)NC(=O)[C@H](CC(C)C)NC(=O)[C@H](CCCNC(=N)N)NC(=O)[C@H](Cc4ccc(O)cc4)NC(=O)[C@H](CCCCN)NC(=O)[C@H](CCSC)NC(=O)[C@H](CO)NC(=O)[C@H](Cc4c[nH]cn4)NC(=O)[C@H](CCCCN)NC3=O)C(=O)N[C@@H](CCCNC(=N)N)C(=O)N[C@@H](CCCCN)C(=O)N[C@@H]([C@@H](C)O)C(=O)N2)NC(=O)[C@H](CCCNC(=N)N)NC(=O)[C@H](CO)NC(=O)[C@H](CCCCN)NC(=O)[C@@H]2CCCN2C(=O)[C@H]([C@@H](C)CC)NC(=O)[C@H]([C@@H](C)O)NC(=O)[C@H](CC(=O)O)NC1=O` [ShK, Stichodactyla toxin], the “potency ranking, Kv1.2” value in experiment [1] is recorded as “MTX > ShK >> KTX1”.

As for `CC[C@H](C)[C@H](NC(=O)[C@H](C)NC(=O)[C@H](C)NC(=O)[C@H](C)N)C(=O)N[C@@H](CO)C(=O)N[C@H]1CSSC[C@@H]2NC(=O)[C@H](CCCCN)NC(=O)CNC(=O)[C@H](CC(N)=O)NC(=O)[C@H](CCCCN)NC(=O)[C@@H]3CSSC[C@@H](C(N)=O)NC(=O)[C@H](Cc4ccc(O)cc4)NC(=O)[C@H](Cc4ccc(O)cc4)NC(=O)[C@@H]4CSSC[C@H](NC(=O)[C@H](CCCCN)NC(=O)[C@@H]5CCCN5C(=O)[C@@H]5CCCN5C(=O)[C@H](CSSC[C@H](NC(=O)[C@H](CCCCN)NC(=O)[C@H](CCCNC(=N)N)NC(=O)[C@H](CC(N)=O)NC(=O)[C@H](CCSC)NC2=O)C(=O)N[C@@H](CCCCN)C(=O)N4)NC(=O)[C@H](CCC(=O)O)NC(=O)[C@@H]2CCCN2C(=O)[C@H](CO)NC(=O)CNC(=O)[C@H](C(C)C)NC1=O)C(=O)N[C@@H](CCCNC(=N)N)C(=O)N[C@@H](C)C(=O)N[C@@H](CCC(N)=O)C(=O)NCC(=O)N3` [Vm24, Vm24 toxin], at KcsA-Kv1.3 T+F chimera, the IC50 amounted to 0.0359 nM; the “rank order of affinities, competition, KcsA-Kv1.3 T+F” value was “Vm24 > HgTx1 > KTX1”; the “Rank, T+F chimera (Kv1.3)” value worked out at 1.

Values taken from paper PMC11002876, “KcsA-Kv1.x chimeras with complete ligand-binding sites provide improved predictivity for screening selective Kv1.x blockers” (The Journal of Biological Chemistry, 2024).
